According to US6743436B1, “Anesthetic composition for intravenous injection comprising propofol” (Kuhnil Pharm. Co., Ltd., priority 1999, dated 2004):

Key:
albino rat = experiment: Experiment 7: hemolysis after intravenous injection; type: in vivo; details: for Af (absorbance of released hemoglobin at 540 nm) / Hemolysis: i.v. over one minute, arterial blood
Experimental: To determine the hemolysis of the formulation of Example 6, albino rat was incised with scissor at the upper part of left femoral region, at which each of vein and artery was cannulated, and then 10 mg/kg of the formulated drug was intravenously injected over one minute. After 0, 5, 10, 15, 30, 45 and 60 minutes, blood was collected from femoral artery in an amount of 100 μl each time. Blood was obtained after heparin-physiological saline and some blood filled in the catheter were removed few, seconds before collecting blood each time. After blood was collected, a small amount of heparin-physiological saline was introduced into the catheter connecting tube to prevent blood coagulation. 100 μl of the collected blood were mixed with 500 μl of physiological saline and then centrifuged with 3000 rpm for 10 minutes. 100 μl of the supernatant were transferred into microplate and the absorbance of released hemoglobin was measured at 540 nm. Hemolysis (%) was calculated according to the following equation. The control group used 70% propylene glycol (PG) solution.
In the above equation, A100 is the absorbance at the time of 100% hemolysis (100 μl of blood was mixed with 500 μl of water); A0 is the absorbance at the time of 0% hemolysis as the blank (Before injection of the drug, normal blood was mixed with 500 μl of physiological saline for the blank test), and Af is the absorbance of each specimen.

[1] = background statement; cited from earlier work

Compound | Af (absorbance of released hemoglobin at 540 nm) (albino rat; 5 min.) | Hemolysis (albino rat; 5 min.) [%] | Af (absorbance of released hemoglobin at 540 nm) (albino rat; 10 min.) | Hemolysis (albino rat; 10 min.) [%] | Af (absorbance of released hemoglobin at 540 nm) (albino rat; 15 min.) | Hemolysis (albino rat; 15 min.) [%] | Af (absorbance of released hemoglobin at 540 nm) (albino rat; 30 min.) | Hemolysis (albino rat; 30 min.) [%] | Af (absorbance of released hemoglobin at 540 nm) (albino rat; 45 min.) | Hemolysis (albino rat; 45 min.) [%] | Af (absorbance of released hemoglobin at 540 nm) (albino rat; 60 min.) | Hemolysis (albino rat; 60 min.) [%] | Af (absorbance of released hemoglobin at 540 nm) (albino rat; initial) | Hemolysis (albino rat; initial) [%] | absorbance relative to the formulation of Example 6 (albino rat; i.v., 0-60 min) | hemolysis (in words) (albino rat; i.v., 0-60 min) | octanol water partition coefficient [1] | pKa [1]
CC(O)CO (stereo not drawn) [70% PG, propylene glycol] | 0.086 | 1.94 | 0.091 | 2.06 | 0.067 | 1.47 | 0.038 | 0.76 | 0.047 | 0.98 | 0.041 | 0.84 | 0.081 | 1.82 | 80-90 times | causes hemolysis | – | –
CC(C)c1cccc(C(C)C)c1O [propofol, 2,6-diisopropylphenol] | – | – | – | – | – | – | – | – | – | – | – | – | – | – | – | – | 4.33 | 10.4
